Read-outs that look alike come from different tables or passages of the source.
Assays:
[1] = target: T1, sEH enzyme (human recombinant) (Homo sapiens, UniProt P34913); test: in vitro IC50 of soluble epoxide hydrolase (sEH) by fluorescence analysis; format: biochemical
T1 construct: purchased Cayman Chemical
T1 sequence (P34913 1-555): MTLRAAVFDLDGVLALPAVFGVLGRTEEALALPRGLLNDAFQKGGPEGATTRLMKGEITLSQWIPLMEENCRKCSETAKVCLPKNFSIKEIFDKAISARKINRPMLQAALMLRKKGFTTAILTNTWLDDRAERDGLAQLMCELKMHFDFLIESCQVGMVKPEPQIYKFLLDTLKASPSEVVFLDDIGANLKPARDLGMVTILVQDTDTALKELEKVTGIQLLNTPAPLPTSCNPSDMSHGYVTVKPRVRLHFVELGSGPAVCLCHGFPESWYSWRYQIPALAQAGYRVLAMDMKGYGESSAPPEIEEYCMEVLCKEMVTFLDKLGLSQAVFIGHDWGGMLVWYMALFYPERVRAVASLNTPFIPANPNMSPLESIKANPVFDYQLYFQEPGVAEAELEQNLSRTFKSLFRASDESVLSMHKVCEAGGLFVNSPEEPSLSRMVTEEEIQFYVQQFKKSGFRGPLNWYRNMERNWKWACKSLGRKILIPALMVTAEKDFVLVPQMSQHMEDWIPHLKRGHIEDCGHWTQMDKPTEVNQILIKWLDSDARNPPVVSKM
Method: The benzothiazole skeleton compounds according to the above formula I of the present invention were tested for the in vitro sEH enzyme activity by fluorescence analysis. […] 12 μL of sEH enzyme (human recombinant, 0.5 mg/mL, Cayman Chemical) was diluted with 588 μL of buffer (25 mM bis-Tris, pH 7.0). […] The inhibitions at different concentrations for the compound were respectively measured in accordance with the inhibition assay, to calculate IC50.

[2] = tested on: carrageenan-induced paw swelling in KM mice; test: Measurement of anti-inflammatory effect, carrageenan-induced paw swelling; format: in vivo; conditions: intraperitoneal injection 1 hour before carrageenan, FIG. 3
Method: 1 hour in advance, the mice were intraperitoneally injected with the solutions of the compounds of Examples 12, 18, 27, and 40 (10% PEG 400, 10% Tween 80) or the blank solvent, respectively. Taking the initial paw thickness of the mice before modeling as 100%, the changes in the paw thickness of the mice were measured.

[3] = target: T1, sEH enzyme (human recombinant); test: in vitro sEH enzyme activity by fluorescence analysis, single concentration inhibition; format: biochemical; conditions: compound 0.1 μM; human recombinant sEH; PHOME substrate; 37° C. 15 min; read-out: sEH % inhibition, @ 0.1 μM
Method: The benzothiazole skeleton compounds (concentration: 0.1 μM) according to the above formula I of the present invention were tested for the in vitro sEH enzyme activity by fluorescence analysis.
12 μL of sEH enzyme (human recombinant, 0.5 mg/mL, Cayman Chemical) was diluted with 588 μL of buffer (25 mM bis-Tris, pH 7.0). The fluorescent substrate was PHOME (cyano-(6-methoxy-naphthalen-2-yl)-methyl (3-phenyl-oxiranyl)-acetate) in DMSO (10 μM, Cayman Chemical). The compound to be tested was dissolved in 100% DMSO at a concentration of 4 μM. 185 μL of buffer (25 mM bis-Tris, pH 7.0), 5 μL of compound solution, and 5 μL of diluted sEH enzyme were added to the wells of a 96-well plate, and finally 5 μL of substrate solution was added to initiate the reaction. After incubating at 37° C. for 15 min, the fluorescence signal was measured with a microplate reader (excitation wavelength 330 nm, emission wavelength 465 nm).
Inhibition (%)=(F0−F1)/(F0)×100.

[4] = tested on: unilateral ureteral obstruction (UUO) C57BL/6J mice; test: Measurement of anti-fibrosis effect, unilateral ureteral obstruction (UUO) model; format: in vivo; conditions: intraperitoneal 30 mg·kg−1·d−1, 7 days after modeling
Method: Male C57BL/6J mice (6 to 8 weeks old) (SPF (Beijing) Biotechnology Co., Ltd.) were divided into 3 groups: sham group, unilateral ureteral obstruction (UUO) group, and UUO+Ex. 16 compound group. After the mice were anesthetized, the left ureter was ligated and cut to create a model. In the sham group, the ureter was only isolated without ligation. The experimental animals were administrated 72 hours before modeling, and the aqueous solution of Ex. 16 compound (10% PEG400, 10% Tween 80, concentration: 9 mg/mL) was intraperitoneally injected at a dose of 30 mg·kg^−1·d^−1; and the sham group and UUO group were intraperitoneally injected with an equal volume of blank solvent. 7 days after modeling, the animals were sacrificed, and samples were taken for testing.

[5] = human recombinant sEH, PHOME substrate, read-out: IC50

Row | Compound | IC50 [1] [nM] | inhibition at 0.1 µM [3] [%] | IC50 [1, 5] [nM] | further results
1 | CCc1ccc(NC(=O)N(CCN2CCOCC2)c2ccc3nc(N)sc3c2)cc1 [Example 18, 1-(2-aminobenzo[d]thiazol-6-yl)-1-[2-(4-morpholinyl)ethyl]-3-(4-ethylphenyl)urea] | 6.7 | 84.7 |  | carrageenan-induced paw swelling (paw thickness) [2]: significantly inhibit; effect on paw swelling compared with celecoxib [2]: better than that of celecoxib
2 | Nc1nc2ccc(NC(=O)Nc3ccc(Cl)cc3)cc2s1 [Example 1, 1-(2-aminobenzo[d]thiazol-6-yl)-3-(4-chlorophenyl)urea] | 4.8 | 76.1 |  | 
3 | Nc1nc2ccc(NC(=O)NC34C[C@H]5C[C@@H](C3)C[C@@H](C4)C5)cc2s1 [Example 4, 1-(2-aminobenzo[d]thiazol-6-yl)-3-[(3s,5s,7s)-adamantan-1-yl]urea] | 122 | 77.3 |  | 
4 | CN(C)CCN(C(=O)Nc1ccc(Cl)cc1)c1ccc2nc(N)sc2c1 [Example 25, 1-(2-aminobenzo[d]thiazol-6-yl)-1-[2-(N,N-dimethylamino)ethyl]-3-(4-chlorophenyl)urea] |  | 70.4 | 27.1 | 
5 | CCOC(=O)CNc1nc2ccc(N(CCN3CCOCC3)C(=O)Nc3ccc(Cl)cc3)cc2s1 [Example 29] |  | 69 | 2.6 | 
6 | O=C(Nc1ccc(Cl)cc1)Nc1ccc2nc(NC(=O)Nc3ccc(Cl)cc3)sc2c1 [Example 7, 1,1′-(benzo[d]thiazol-2,6-diyl)bis[3-(4-chlorophenyl)urea]] |  | 59.9 | 9.2 | 
7 | CC(=O)Nc1nc2ccc(N(CCN3CCOCC3)C(=O)Nc3ccc(Cl)cc3)cc2s1 [Example 30, 1-(2-acetamidobenzo[d]thiazol-6-yl)-1-[2-(4-morpholinyl)ethyl]-3-(4-chlorophenyl)urea] |  | 27.5 | 1.9 | 
8 | O=C(Cc1ccccc1)Nc1nc2ccc(N(CCN3CCOCC3)C(=O)Nc3ccc(Cl)cc3)cc2s1 [Example 27, 1-(2-phenylacetamidobenzo[d]thiazol-6-yl)-1-[2-(4-morpholinyl)ethyl]-3-(4-chlorophenyl)urea] | 0.02 | 79.4 |  | carrageenan-induced paw swelling (paw thickness) [2]: significantly inhibit; effect on paw swelling compared with celecoxib [2]: better than that of celecoxib
9 | Nc1nc2ccc(N(CCN3CCOCC3)C(=O)Nc3ccc(C(F)(F)F)cc3)cc2s1 [Example 13, 1-(2-aminobenzo[d]thiazol-6-yl)-1-[2-(4-morpholinyl)ethyl]-3-(4-trifluoromethylphenyl)urea] |  | 63.9 | 2.8 | 
10 | Nc1nc2ccc(N(CCN3CCOCC3)C(=O)Nc3ccc(F)c(Br)c3)cc2s1 [Example 16, 1-(2-aminobenzo[d]thiazol-6-yl)-1-[2-(4-morpholinyl)ethyl]-3-(3-bromo-4-fluorophenyl)urea] |  | 79.7 | 0.25 | level of EETs in mouse kidney tissue ([4]; FIG. 1): maintain the level of EETs; collagen deposition ([4]; FIG. 2): reduce the collagen deposition; fibrotic areas ([4]; FIG. 2): decrease the fibrotic areas

Reference: patent US20230219911A1, “BENZOTHIAZOLE DERIVATIVES AND USES THEREOF” (SHENYANG PHARMACEUTICAL UNIVERSITY, priority 2020, published 2023)
